The source of these data is ChEMBL document CHEMBL1201862, “PubChem BioAssay data set” (2004).

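The compound was tested at five concentrations on cells cultured in 96-well plates, with a 48-hour exposure period. Abbreviation: GI50, concentration required for 50% inhibition of growth.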 Calls of active or inactive are those of the source. Rule as the data show it: active = GI50 up to about 1.1 µM and inactive = higher.

Among the test systems are ACHN; CCRF-CEM; HCC 2998; HOP-18; HOP-62; LXFL 529; M14; M19-MEL; OVCAR-4; OVCAR-5; RPMI-8226; RXF 631; SF-268; SF-539; SK-MEL-2; SR; UACC-62; DMS-114.
Common to all, as to experiment: growth of human tumour cells (NCI), 48 h

Regarding `O=C(CC1Sc2ccccc2NC1=O)Nc1ccccc1[N+](=O)[O-]` (stereo unspecified), the GI50 in the assay on ACHN, in the assay on CCRF-CEM, in the assay with HCC 2998, with HOP-18, with HOP-62 and in the assay with LXFL 529 was > 100 µM (inactive) each time. Also, the GI50 in the assay on M14, with M19-MEL, in the assay with OVCAR-4, in the assay with OVCAR-5, in the assay on RPMI-8226 and in the assay on RXF 631 was > 100 µM (inactive) throughout. For the same compound, the GI50 in the assay with SF-268 is > 100 µM (inactive); in the assay on SF-539 it was > 100 µM (inactive); with SK-MEL-2, > 100 µM (inactive); in the assay on SR it was 12.2 µM (inactive); in the assay on UACC-62 it was > 100 µM (inactive).

For `COc1cccc(NC(=O)CC(=O)NN2C(=O)/C(=C/c3ccc(N(CCC#N)CCC#N)cc3)N=C2c2cc([N+](=O)[O-])ccc2Cl)c1`, the GI50 was > 100 µM (inactive) in the assay with ACHN; 0.499 µM (active) in the assay on CCRF-CEM; 31 µM (inactive) with DMS-114; 96.8 µM (inactive) in the assay on HCC 2998; > 100 µM (inactive) with HOP-62; 40.7 µM (inactive) in the assay with LXFL 529. For the same compound, the GI50 was > 100 µM (inactive) with M14; > 100 µM (inactive) in the assay on M19-MEL; 99.1 µM (inactive) in the assay on OVCAR-4; 25.5 µM (inactive) with OVCAR-5; 30.3 µM (inactive) in the assay on RPMI-8226; > 100 µM (inactive) with RXF 631. Besides, the GI50 in the assay on SF-268 is > 100 µM (inactive); with SF-539, > 100 µM (inactive); in the assay with SK-MEL-2, > 100 µM (inactive); in the assay on SR, 22.4 µM (inactive); with UACC-62, 64.7 µM (inactive).

With `C=C1C2=C(CCCC2)C(=O)OC12CCCCC2`, the GI50 in the assay on ACHN was 40.9 µM (inactive); in the assay with CCRF-CEM it was 51.4 µM (inactive); with DMS-114, 29.5 µM (inactive); in the assay on HCC 2998, > 100 µM (inactive); with HOP-18, > 100 µM (inactive); with HOP-62, > 100 µM (inactive). The GI50 in the assay with LXFL 529 is 40.7 µM (inactive); in the assay on M14, > 100 µM (inactive); in the assay on M19-MEL, 46.5 µM (inactive); in the assay with OVCAR-4, 98.2 µM (inactive); in the assay with OVCAR-5, 79.8 µM (inactive); in the assay on RPMI-8226, 35.5 µM (inactive). In addition, the GI50 is 72.1 µM (inactive) with RXF 631; 86.1 µM (inactive) with SF-268; > 100 µM (inactive) in the assay on SF-539; 70.3 µM (inactive) with SK-MEL-2; 38.9 µM (inactive) in the assay on SR; 56.9 µM (inactive) in the assay on UACC-62.

Regarding `COc1ccccc1NC(=O)C(=O)C(C(=O)c1ccccc1F)C1OC(=O)c2ccccc21` (stereo unspecified), the GI50 in the assay with ACHN was 39.4 µM (inactive); in the assay with CCRF-CEM, 16.1 µM (inactive); in the assay on DMS-114 it was 23.1 µM (inactive); with HCC 2998, 14.8 µM (inactive); in the assay on HOP-62 it was 30.5 µM (inactive); with LXFL 529, 24.9 µM (inactive). Besides, the GI50 was 27.5 µM (inactive) in the assay on M14; 15.8 µM (inactive) with M19-MEL; 28.1 µM (inactive) with OVCAR-4; 45.1 µM (inactive) with OVCAR-5; 20.2 µM (inactive) with RPMI-8226; 18.7 µM (inactive) in the assay on RXF 631. For the same compound, the GI50 in the assay with SF-268 is 29.9 µM (inactive); with SF-539, 20.8 µM (inactive); in the assay on SK-MEL-2 it was 17.6 µM (inactive); with SR it was 22.2 µM (inactive); with UACC-62, 15.8 µM (inactive).

With `c1ccc2c(NCCCCCCCCNc3cccc4ccccc34)cccc2c1`, the GI50 is 30 µM (inactive) in the assay on ACHN; 14.6 µM (inactive) in the assay with CCRF-CEM; 25.6 µM (inactive) in the assay with DMS-114; > 100 µM (inactive) in the assay on HCC 2998; 20.1 µM (inactive) with HOP-18; > 100 µM (inactive) in the assay on HOP-62. For the same compound, the GI50 with LXFL 529 was 18.6 µM (inactive); in the assay on M14, 19.9 µM (inactive); in the assay with M19-MEL it was > 10 µM (inactive); in the assay on OVCAR-4 it was 28.2 µM (inactive); in the assay on OVCAR-5, 46 µM (inactive); in the assay on RPMI-8226, > 10 µM (inactive). Further, the GI50 with RXF 631 was 18.9 µM (inactive); in the assay with SF-268, 65 µM (inactive); in the assay with SF-539, 27 µM (inactive); in the assay on SK-MEL-2, 35.8 µM (inactive); with UACC-62 it was 20.5 µM (inactive).
